The numbers were not newly measured in patent publication US7375097B2, “Increasing ATP availability by inhibition of creatine kinase (CK) leakage resulting from high-intensity exercise” (Aplodan Formulations Ltd., priority 2006, dated 2008), which cites them from elsewhere.

Read-outs that look alike come from different tables or passages of the source.

For series [1] the following is noted: in vivo.
A further series relates to hand-grip strength. To be noted: unaffected in the placebo group.
Series [2] has as its system serum CK levels increased by isoprenaline. To be noted: rats; CK increased by administration of isoprenaline.
The subject of series [3] is patients with inadequate coronary blood flow.
Series [4] concerns leakage of CK in acute myocardial infarction. To be noted: human patients suffering from acute myocardial infarction.
For series [5] the following is noted: in vitro.
Series [6] concerns models of myocardial infarction.
The conditions of series [7]: in vivo. The source holds these as a separate data set.
The conditions of series [8]: oral administration, test animals, up to about, at 48 hours.
For series [9] the following is noted: alkaline and acidic solutions.
For series [10], the system named is skeletal muscle performance. To be noted: clinical trials.

As for `CN(CCOP(=O)(O)O)C(=N)N` [2-(carbamimidoyl-methyl-amino)ethoxyphosphonic acid], the cardioprotection entry in [1] was “afford cardioprotection”. For the same molecule, the hand-grip strength result in the series on hand-grip strength was “hand-grip strength was improved”. Also, in [2], the “serum CK levels” value is reported as “reduce serum CK levels”. Moreover, the cardiac parameters result in series [3] is reported as “improve cardiac parameters”. Also, the “leakage of CK and several other enzymes” value in [4] is listed as “reduce the leakage of CK as well as several other enzymes”. The dephosphorylation to creatine result in series [5] (blood and muscle) is given as “less so”; in [5] (kidney, intestine and liver), “dephosphorylated to creatine to some degree”. For the same molecule, the “protection against cellular necrosis” value in series [6] is “protective against cellular necrosis”. Further, the “tolerability / side effects” value in series [7] is “well tolerated and without side effects”. For the same molecule, the “absorption by the intestine” value in series [8] is reported as “about 60%”. Further, in the series on elderly subjects, the muscular performance entry is on record as “improved muscular performance”. Besides, the stability in solution result in series [9] is “stable in both alkaline and acidic solutions”. The “capacity to perform physical activity” value in series [10] was “increase the capacity to perform physical activity”. For the same molecule, in [10], the muscular development entry is reported as “improve muscular development”.
